Patent US20210299144A1, “USE OF PR[…] TO REDUCE CYST FORMATION IN KIDNEY” (priority 2019, published 2021)

What was measured:
TRPM4 = biological target: T1, TRPM4 (Mus musculus, UniProt Q7TN37); assay: TRPM4 current in cilia of TRPM3-knockout mIMCD-3 cells; type: biochemical, murine; settings: 2 mM cytoplasmic MgATP, cilia lacking TRPM3
T1 construct: endogenous in cells; host or cells: mIMCD-3 cell line with TRPM3 knocked out by CRISPR/Cas9; excised primary cilia
Description: The large-conductance ciliary channel is not detectable unless TRPP2 is expressed. Given the pharmacological similarities between the ciliary TRPP2-dependent channel and TRPM3, we investigated whether the ciliary channel also requires expression of TRPM3. We used an mIMCD-3 cell line in which TRPM3 was knocked out by CRISPR/Cas9 genome editing. In electrical recordings from the primary cilia of cells lacking TRPM3, the large-conductance channel was never seen (n=45, Table 1, TRPM3 KO). […] Knocking out TRPM3 had no effect on the activity of another ciliary channel, TRPM4. In 17 cilia tested from TRPM3-knockout cells, 1 mM cytoplasmic Ca^2+ on average activated a current at +100 mV of 47±7 pA. […] As in cilia of wild-type cells, 2 mM cytoplasmic MgATP blocked the TRPM4 current. […]
All recordings were done under voltage clamp at room temperature (24° C.). […] Total mean channel current was measured as the mean current minus the current attributed to leak channels. The latter was determined from an amplitude histogram. […] Channel open probabilities were determined from amplitude histograms and are reported only when the number of channels in the membrane was unambiguous. The presence or absence of active TRPP2 channels was assessed with the cilium or patch exposed to 3 μM cytoplasmic Ca^2+ and the voltage clamped to +40 mV. […]

[1] = biological target: T2, ciliary TRPP2-dependent channel (Mus musculus, UniProt J9SQF3); assay: Electrical recording of the large-conductance channel in single excised primary cilia of mIMCD-3 cells; type: biochemical, murine; set-up: mean single-channel conductance (slope) / extrapolated reversal potential (x-intercept): dose or concentration left out as unconfirmed; settings: for increase of mean channel current (factor): +60 mV
T2 construct: Electrical recordings were made from primary cilia of mIMCD-3 cells; host or cells: mIMCD-3 cells, excised primary cilia (inside-out) or apical membrane patches
T2 sequence (J9SQF3 whole entry): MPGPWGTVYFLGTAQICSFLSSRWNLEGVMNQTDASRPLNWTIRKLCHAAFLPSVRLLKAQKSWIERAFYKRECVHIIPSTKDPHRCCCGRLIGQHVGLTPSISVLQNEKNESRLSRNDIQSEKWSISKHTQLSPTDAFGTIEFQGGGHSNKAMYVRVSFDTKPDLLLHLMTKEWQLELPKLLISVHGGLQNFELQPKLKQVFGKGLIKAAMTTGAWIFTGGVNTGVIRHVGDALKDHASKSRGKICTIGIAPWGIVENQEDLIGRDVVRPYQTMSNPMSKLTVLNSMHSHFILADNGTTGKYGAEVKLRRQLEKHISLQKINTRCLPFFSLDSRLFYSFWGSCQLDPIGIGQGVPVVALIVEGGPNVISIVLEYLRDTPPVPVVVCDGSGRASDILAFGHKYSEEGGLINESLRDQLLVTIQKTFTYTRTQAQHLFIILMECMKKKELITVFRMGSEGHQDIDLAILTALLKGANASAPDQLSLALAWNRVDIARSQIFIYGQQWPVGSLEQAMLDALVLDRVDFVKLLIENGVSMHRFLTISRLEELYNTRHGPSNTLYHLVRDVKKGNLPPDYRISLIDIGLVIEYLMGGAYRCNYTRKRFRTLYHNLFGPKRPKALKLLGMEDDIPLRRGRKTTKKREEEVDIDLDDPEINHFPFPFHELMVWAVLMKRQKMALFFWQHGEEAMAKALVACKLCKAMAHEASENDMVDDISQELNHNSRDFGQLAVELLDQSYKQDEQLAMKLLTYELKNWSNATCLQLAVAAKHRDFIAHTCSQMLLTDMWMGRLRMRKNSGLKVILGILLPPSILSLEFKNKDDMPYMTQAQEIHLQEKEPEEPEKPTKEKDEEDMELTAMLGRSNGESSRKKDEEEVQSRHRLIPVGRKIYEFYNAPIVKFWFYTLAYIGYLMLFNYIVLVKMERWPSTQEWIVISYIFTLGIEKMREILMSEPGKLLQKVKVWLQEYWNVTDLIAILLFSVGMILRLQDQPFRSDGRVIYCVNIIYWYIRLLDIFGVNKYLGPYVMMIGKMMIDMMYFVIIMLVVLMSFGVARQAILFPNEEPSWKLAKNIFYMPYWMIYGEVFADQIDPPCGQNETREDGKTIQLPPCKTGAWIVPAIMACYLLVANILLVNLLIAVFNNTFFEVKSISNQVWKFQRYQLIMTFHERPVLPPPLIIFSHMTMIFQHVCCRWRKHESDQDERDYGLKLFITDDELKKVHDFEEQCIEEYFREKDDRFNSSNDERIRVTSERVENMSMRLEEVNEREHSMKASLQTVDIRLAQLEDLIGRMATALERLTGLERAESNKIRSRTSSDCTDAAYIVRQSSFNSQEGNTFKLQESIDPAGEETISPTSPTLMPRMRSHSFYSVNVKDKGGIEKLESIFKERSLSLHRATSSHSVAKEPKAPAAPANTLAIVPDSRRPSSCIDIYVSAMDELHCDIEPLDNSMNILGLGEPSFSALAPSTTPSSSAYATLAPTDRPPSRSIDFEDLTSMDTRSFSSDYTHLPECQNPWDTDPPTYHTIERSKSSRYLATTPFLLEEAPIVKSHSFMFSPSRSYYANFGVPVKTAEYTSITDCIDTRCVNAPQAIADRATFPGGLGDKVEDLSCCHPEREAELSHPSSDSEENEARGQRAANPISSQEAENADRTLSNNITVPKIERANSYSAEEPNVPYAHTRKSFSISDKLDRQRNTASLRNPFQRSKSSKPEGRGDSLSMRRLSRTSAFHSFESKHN
Protocol: (§1) Electrical recordings were made from primary cilia of mIMCD-3 cells. mIMCD-3 cells (murine epithelial cells from the renal inner medullary collecting duct, (CRL-2123, American Type Culture Collection, Manassas, Va., USA) were cultured on beads that were free to move in the recording chamber. Suction was applied to a recording pipette so that a single primary cilium entered the pipette. If a resistance of at least 1 GΩ formed between the membrane and the pipette, the cilium was excised from the cell. This left the cilium inside the recording pipette in the inside-out configuration. The pipette containing the cilium could then be transferred among different solutions that bathed the cytoplasmic face of the membrane. In one set of experiments (FIGS. 1 and 2), the external solution was replaced by perfusing the pipette (FIG. 14).
During recording, the beads coated with cells were stored in a standard external solution containing (in mM) NaCl 140, KCl 5, CaCl2 2, MgCl2 2, sodium pyruvate 2, HEPES 5, and D-glucose 9.4, adjusted to pH 7.4 with NaOH. The recording pipettes also contained this solution except as noted. […] The standard cytoplasmic solution contained (in mM) KCl 140, NaCl 5, CaCl2 0.7, MgCl2 2, HEPES 5, BAPTA 2, and D-glucose 5, adjusted to pH 7.4 with KOH. This solution contained 0.1 μM free Ca^2+. To make a cytoplasmic solution with 3 μM free Ca^2+, BAPTA was replaced with dibromoBAPTA, and the total CaCl2 was increased to 1.4 mM. In buffered solutions, concentrations of free Ca^2+ were estimated by the method of Bers (see Bers D M: “A simple method for the accurate determination of free [Ca] in Ca-EGTA solutions” Am J Physiol Cell Physiol. 1982; 242: C404-C408), which is herein incorporated by reference in its entirety.
All recordings were done under voltage clamp at room temperature (24° C.). Equipment, software, and technical details, including corrections for liquid junction potentials, were conducted as described in the article: Kleene S J, Kleene N K. “The native TRPP2-dependent channel of murine renal primary cilia” Am J Physiol Renal Physiol. 2017; 312: F96-F108, which is herein incorporated by reference in its entirety. During acquisition, currents were low-pass filtered at 2 kHz and digitized at 5 kHz. Total mean channel current was measured as the mean current minus the current attributed to leak channels. The latter was determined from an amplitude histogram. […] Channel open probabilities were determined from amplitude histograms and are reported only when the number of channels in the membrane was unambiguous. The presence or absence of active TRPP2 channels was assessed with the cilium or patch exposed to 3 μM cytoplasmic Ca^2+ and the voltage clamped to +40 mV. If no large-conductance channels were seen to open within 2 min, active TRPP2 channels were judged to be absent.

TRPP2-dependent channels = biological target: T3, TRPP2-dependent channels (Mus musculus, UniProt J9SQF3); assay: Incidences of TRPP2-dependent channels in apical and ciliary membranes; type: biochemical, murine; settings: for incidence of TRPP2-dependent channels: PS 75 or 230 μM external, 3 μM cytoplasmic Ca2+, +40 mV
T3 construct: Electrical recordings were made from primary cilia of mIMCD-3 cells; host or cells: mIMCD-3 cells, excised primary cilia (inside-out) or apical membrane patches
T3 sequence (J9SQF3 whole entry): as above
Protocol: In Table 1, the presence or absence of active TRPP2 channels was assessed with the cilium or apical membrane patch exposed to 3 μM cytoplasmic Ca^2+ and the voltage clamped to +40 mV. If no large-conductance channels were seen to open within 2 min, active TRPP2 channels were judged to be absent. […] PS, pregnenolone sulfate; KO, knockout; ND, not determined.
as §1
All recordings were done under voltage clamp at room temperature (24° C.). Equipment, software, and technical details, including corrections for liquid junction potentials, were conducted as described in the article: Kleene S J, Kleene N K. “The native TRPP2-dependent channel of murine renal primary cilia” Am J Physiol Renal Physiol. 2017; 312: F96-F108, which is herein incorporated by reference in its entirety. During acquisition, currents were low-pass filtered at 2 kHz and digitized at 5 kHz. Total mean channel current was measured as the mean current minus the current attributed to leak channels. The latter was determined from an amplitude histogram. In each cilium reported, the number of large-conductance channels was between 1 and 5. Channel open probabilities were determined from amplitude histograms and are reported only when the number of channels in the membrane was unambiguous. The presence or absence of active TRPP2 channels was assessed with the cilium or patch exposed to 3 μM cytoplasmic Ca^2+ and the voltage clamped to +40 mV. If no large-conductance channels were seen to open within 2 min, active TRPP2 channels were judged to be absent. These cilia have a second Ca^2+-activated channel, TRPM4, but it is not activated by the concentrations of cytoplasmic Ca^2+ used in this study ([…] The half-maximal effect of Ca^2+ on ciliary TRPM4 occurs at 646 μM at +100 mV and 1166 μM at −100 mV.

mIMCD-3 cells = assay: Measuring intracellular calcium (Fura2-AM, F340/F380) in mIMCD-3 cells; type: cell-based, murine; settings: 200 μM pregnenolone sulfate in 0.4% DMSO
Protocol: Wild-type (WT) mIMCD-3 cells and a clone of mIMCD-3 cells that lacked TRPP2 (TRPP2 KO) were grown to confluence in a 96-well plate and loaded with Fura2-AM, a ratiometric Ca^2+ indicator dye. The ratio of the fluorescence (after background subtraction) at 340 nm and 380 nm (F340/F380) correlates with the cytoplasmic Ca^2+ concentration. […] Unlike in the electrophysiological ciliary recordings, here the apical surface of the cell, including the cilium, is exposed to the pregnenolone sulfate. […] Responses from individual wells are shown as black circles. The experiment was done with two different passages for each cell line for a total of 19 wells per condition.
Wild-type mIMCD-3 cells and one mIMCD-3 clone with TRPP2 knocked out were grown to confluence in a 96-well plate. Standard external solution with 1 mM probenecid was used for all solutions. […] The ratio of the fluorescence (after background subtraction) at 340 nm and 380 nm (F340/F380) indicates the cytoplasmic Ca^2+ concentration and was measured on a BioTek Synergy 4 plate reader. Background fluorescence (wells with cells, 0.01% pluronic acid, and 0.1% DMSO in standard external solution, but no dye) was subtracted from the F340 and F380 readings. […]

T1 sequence (Q7TN37 whole entry): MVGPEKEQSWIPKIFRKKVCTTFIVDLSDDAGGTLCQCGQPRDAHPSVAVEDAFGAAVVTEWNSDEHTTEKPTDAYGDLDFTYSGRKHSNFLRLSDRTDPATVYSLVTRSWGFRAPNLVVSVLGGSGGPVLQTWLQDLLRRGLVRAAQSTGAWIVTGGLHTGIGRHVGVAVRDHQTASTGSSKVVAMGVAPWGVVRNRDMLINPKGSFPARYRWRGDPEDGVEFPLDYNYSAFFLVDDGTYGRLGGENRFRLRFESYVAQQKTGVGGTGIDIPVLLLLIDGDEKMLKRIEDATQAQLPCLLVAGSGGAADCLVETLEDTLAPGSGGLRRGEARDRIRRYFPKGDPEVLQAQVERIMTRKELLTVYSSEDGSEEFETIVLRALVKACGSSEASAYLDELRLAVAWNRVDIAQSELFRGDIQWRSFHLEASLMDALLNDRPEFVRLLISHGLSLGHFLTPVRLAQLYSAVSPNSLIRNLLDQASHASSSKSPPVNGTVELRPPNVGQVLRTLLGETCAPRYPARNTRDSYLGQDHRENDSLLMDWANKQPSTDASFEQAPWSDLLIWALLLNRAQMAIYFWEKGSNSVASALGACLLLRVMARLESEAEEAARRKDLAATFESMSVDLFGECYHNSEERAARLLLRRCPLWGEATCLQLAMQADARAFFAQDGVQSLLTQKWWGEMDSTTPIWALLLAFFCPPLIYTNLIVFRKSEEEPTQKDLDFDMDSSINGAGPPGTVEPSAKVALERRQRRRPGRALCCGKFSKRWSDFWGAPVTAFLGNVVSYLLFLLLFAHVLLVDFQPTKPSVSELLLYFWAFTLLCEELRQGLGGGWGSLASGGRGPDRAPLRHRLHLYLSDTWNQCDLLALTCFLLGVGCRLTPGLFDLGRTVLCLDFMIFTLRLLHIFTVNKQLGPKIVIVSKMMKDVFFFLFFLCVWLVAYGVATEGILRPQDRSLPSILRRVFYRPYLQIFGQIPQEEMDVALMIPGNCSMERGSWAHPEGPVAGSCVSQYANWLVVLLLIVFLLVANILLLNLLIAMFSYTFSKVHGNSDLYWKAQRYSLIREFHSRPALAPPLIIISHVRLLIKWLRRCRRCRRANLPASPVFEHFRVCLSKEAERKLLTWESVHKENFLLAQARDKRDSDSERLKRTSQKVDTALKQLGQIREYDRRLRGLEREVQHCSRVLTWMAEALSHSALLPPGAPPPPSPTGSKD

## Nc1ncnc2c1ncn2[C@@H]1O[C@H](COP(=O)(O)OP(=O)([O-])OP(=O)([O-])O)[C@@H](O)[C@H]1O.[Mg+2] [MgATP]
TRPM4
  fraction of TRPM4 current remaining after addition of MgATP: 0.34±0.03

## Pregnenolone sulfate
[1]; 1 μM external PS, 3 μM cytoplasmic Ca2+
  k (Boltzmann slope factor): 13.5 ± 1.0 mV
[1]; 1 μM external PS, 3 μM cytoplasmic Ca2+, Vm −40 to +60 mV
  V1/2 (potential at which open probability is 0.5): −5.6 ± 1.1 mV
[1]; 3 μM cytoplasmic Ca2+, FIG. 7
  channel activation at 230 μM compared with 75 μM: no more effective
[1]; 10 μM external PS, 3 μM cytoplasmic Ca2+
  k (Boltzmann slope factor): 18.3 ± 1.5 mV
[1]; 10 μM external PS, 3 μM cytoplasmic Ca2+, Vm −40 to +50 mV
  V1/2 (potential at which open probability is 0.5): −21.4 ± 1.4 mV
[1]; 75 μM external PS, KCl-based external solution, 3 μM cytoplasmic Ca2+
  k (Boltzmann slope factor): 14.8 ± 0.9 mV
[1]; 75 μM external PS, KCl-based external solution, 3 μM cytoplasmic Ca2+, Vm −140 to −20 mV
  V1/2 (potential at which open probability is 0.5): −67.2 ± 1.0 mV
[1]; […] μM cytoplasmic pregnenolone sulfate, 0.1 μM cytoplasmic Ca2+
  increase of mean channel current (factor): 3.6±0.7
[1]; […] μM external (pipette) pregnenolone sulfate, 0.1 μM cytoplasmic free Ca2+
  increase of mean channel current (factor): 30±12
[1]; […] μM external pregnenolone sulfate, standard external solution
  extrapolated reversal potential (x-intercept): −67±2 mV
[1]; […] μM external pregnenolone sulfate, standard external solution, fit −40 to +50 mV
  mean single-channel conductance (slope): 92±3 pS
[1]; after 75 μM external pregnenolone sulfate, −10 mV, free Ca2+ 3
  fraction of the mean channel current remaining after replacing external solution with one lacking pregnenolone sulfate: 0.14±0.08
[1]; external pregnenolone sulfate up to 75 μM, 0.1 μM cytoplasmic Ca2+, FIG. 5
  channel activity (open probability): significantly increased the channel activity
TRPP2-dependent channels; apical membrane, TRPM3 KO
  incidence of TRPP2-dependent channels: 0/34
TRPP2-dependent channels; apical membrane, TRPP2 KO
  incidence of TRPP2-dependent channels: 0/30
TRPP2-dependent channels; apical membrane, wild type
  incidence of TRPP2-dependent channels: 3/57
TRPP2-dependent channels; ciliary membrane, TRPP2 KO
  incidence of TRPP2-dependent channels: 0/28
TRPP2-dependent channels; ciliary membrane, wild type
  incidence of TRPP2-dependent channels: 77/259
TRPP2-dependent channels; wild type cilia exposed to pregnenolone sulfate
  cilia in which channels were observed: 30%
mIMCD-3 cells; TRPP2 KO mIMCD-3 cells, compared with wild-type
  cytoplasmic Ca2+ response (Post Stim. F340/F380 − Pre Stim. F340/F380): smaller response
mIMCD-3 cells; wild-type mIMCD-3 cells
  cytoplasmic Ca2+ response (Post Stim. F340/F380 − Pre Stim. F340/F380): increased cytoplasmic Ca^2+
